What was measured:
[1] = target: T1, cholesteryl ester transfer protein (CETP) (Homo sapiens, UniProt P11597); test: CETP activity change from baseline after 900 mg oral Compound I, fed vs fasted (Example 2); assay type: in vivo, human (Caucasian male patients); details: mean
T1 construct: from tissue; host or cells: samples from dosed male patients (CETP is described as a plasma protein)
T1 sequence (P11597 18-493): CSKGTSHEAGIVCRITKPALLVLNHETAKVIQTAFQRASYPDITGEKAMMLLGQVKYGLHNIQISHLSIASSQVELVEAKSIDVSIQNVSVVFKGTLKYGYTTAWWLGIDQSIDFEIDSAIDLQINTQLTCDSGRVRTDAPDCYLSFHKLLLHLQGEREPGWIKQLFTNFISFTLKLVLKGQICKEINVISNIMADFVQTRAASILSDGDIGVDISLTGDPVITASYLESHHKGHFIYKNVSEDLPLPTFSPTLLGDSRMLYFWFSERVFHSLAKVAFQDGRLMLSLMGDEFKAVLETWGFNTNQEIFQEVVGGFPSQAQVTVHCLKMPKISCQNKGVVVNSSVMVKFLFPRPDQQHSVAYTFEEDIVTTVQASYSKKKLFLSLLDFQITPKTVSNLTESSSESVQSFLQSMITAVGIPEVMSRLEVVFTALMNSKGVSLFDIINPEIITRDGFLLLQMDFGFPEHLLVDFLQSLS
Method: Administration, dosing, and sampling schedules were substantially similar to those described in Example 1.
The procedure for determining CETP activity was substantially similar to the procedures described in Tollefson et al., Methods Enzymol., 129, 797-816 (1986), and Kato et al., J. Biol. Chem., 264, 4082-4087 (1989).
CETP activity and changes from baseline (pre-dose) were measured, and the resulting data is summarized in Table 2 as percentage change from baseline. The mean changes from baseline (pre-dose) in CETP activity over time are set out in the plot of FIG. 3.

[2] = Food-effect pharmacokinetic study, 600 mg oral Compound I, fed vs fasted (Example 4); assay type: in vivo, human (Japanese male volunteers)
Method: Administration, dosing, and sampling schedules were commensurate with those described in Example 1. […] Patients were administered two tablets of 300 mg each. The tablets were prepared as described in Example 1.

CCC(CC)CC1(C(=O)Nc2ccccc2SC(=O)C(C)C)CCCCC1 [Compound I, S-[2-([[1-(2-ethylbutyl)cyclohexyl]carbonyl]amino)phenyl]2-methylpropanethioate]
Percent change from pre-dose in CETP activity ([1]; Fasted, 1 h): 1% | Percent change from pre-dose in CETP activity ([1]; Fasted, 2 h): 2% | Percent change from pre-dose in CETP activity ([1]; Fasted, 4 h): −4% | Percent change from pre-dose in CETP activity ([1]; Fasted, 6 h): −10% | Percent change from pre-dose in CETP activity ([1]; Fasted, 8 h): −15% | Percent change from pre-dose in CETP activity ([1]; Fasted, 24 h): −10% | Percent change from pre-dose in CETP activity ([1]; Fed, 1 h): −1% | Percent change from pre-dose in CETP activity ([1]; Fed, 2 h): −16% | Percent change from pre-dose in CETP activity ([1]; Fed, 4 h): −44% | Percent change from pre-dose in CETP activity ([1]; Fed, 6 h): −59% | Percent change from pre-dose in CETP activity ([1]; Fed, 8 h): −58% | Percent change from pre-dose in CETP activity ([1]; Fed, 24 h): −34% | AUC0-∞ times higher with food as compared to without food [2]: ~2 times
